Results taken from US20250042897A1, “HETEROCYCLIC COMPOUNDS AS TRIGGERING RECEPTOR EXPRESSED ON MYELOID CELLS 2 AGONISTS AND METHODS OF USE” (Vigil Neuroscience, Inc., priority 2021, published 2025).

These compounds were tested against T1, human TREM2 (Homo sapiens, UniProt Q9NZC2) (assay: hTREM2 agonist potency by cellular Syk phosphorylation (AlphaLisa) in HEK293T-hTREM2 cells). Settings: Table D-2; HEK293 cells expressing human TREM2 and DAP12; pSyk AlphaLisa; 45 minutes at room temperature.
T1 construct: expressed in transfected cells; host or cells: HEK293T
T1 sequence (Q9NZC2 19-230): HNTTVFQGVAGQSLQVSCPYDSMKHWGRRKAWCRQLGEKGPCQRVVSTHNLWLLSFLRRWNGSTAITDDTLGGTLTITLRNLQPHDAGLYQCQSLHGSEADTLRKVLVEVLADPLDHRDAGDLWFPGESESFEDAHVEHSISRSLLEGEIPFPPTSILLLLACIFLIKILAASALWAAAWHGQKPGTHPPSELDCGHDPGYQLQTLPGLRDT
T1 sequence (O43914 22-113 partner): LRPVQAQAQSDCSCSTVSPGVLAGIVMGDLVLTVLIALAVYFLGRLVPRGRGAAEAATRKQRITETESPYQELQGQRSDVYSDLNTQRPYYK
Type: cell-based
Method: In Vitro Measurement of Triggering Receptor Expressed on Myeloid Cells 2 Activity Using Cellular Phosphorylation of Spleen Tyrosine Kinase (“Syk”) Assays
Measurement of TREM2 agonist potency was done using a HEK cell line expressing human TREM2 and DAP12 (HEK293T-hTREM2 cells). Binding of small molecules to, and activation of, TREM2 increases the phosphorylation of Syk. The resultant levels of Syk phosphorylation are measured using a commercial AlphaLisa reagent kit. To perform the assay, HEK-hTREM2 cells were plated at 14,000 cells per well in a 384 well plate, in 25 μL of complete growth media and incubated at 37° C., 5% CO2 for 20-24 hours.
Prior to the assay, test compounds were diluted in the 384 well plates in assay buffer and allowed to equilibrate for 30 minutes. Growth media was removed from cell plates by inversion on blotting paper, and 25 μL of test articles in assay buffer was added to cells. Cells were incubated for 45 minutes at room temperature. After 45 minutes, assay buffer was removed and 10 μL of lysis buffer was added. Plates were shaken for 20 minutes at 350 RPM at room temperature. After complete lysis, AlphaLisa reagents were added to the lysate, and fluorescence intensity was measured using a Perkin Elmer Envision plate reader. Intensities were used to generate a standard curve, and % activation was calculated. Curve fitting was performed using Prism v9 software, log (agonist) vs response-variable slope (four parameters), and EC50s were calculated from the curve fit.
The results presented in Table D have been generated with the in vitro assay described above. This assay may be used to test any of the compounds described herein to assess and characterize a compound's ability to act as an agonist of TREM2.

Structure (SMILES) | EC50 [nM]
Cc1nc2c(-c3ccc(C(F)(F)F)cc3F)nc(N3C[C@@H](C)O[C@@H](c4cnn(C5CC5)c4)C3)nc2c(=O)n1C [I-136, 6-[(2S,6R)-2-(1-cyclopropylpyrazol-4-yl)-6-methyl-morpholin-4-yl]-8-[2-fluoro-4-(trifluoromethyl)phenyl]-2,3-dimethyl-pyrimido[5,4-d]pyrimidin-4-one] | ≤ 50
C[C@@H]1CN(c2nc(-c3cc(F)c(F)cc3F)c3cnn(C)c(=O)c3n2)C[C@H](c2cnn(C3CC3)c2)O1 [I-218, 2-((2S,6R)-2-(1-cyclopropyl-1H-pyrazol-4-yl)-6-methylmorpholino)-7-methyl-4-(2,4,5-trifluorophenyl)pyrimido[4,5-d]pyridazin-8 (7H)-one] | ≤ 50
C[C@@H]1CN(c2nc(-c3ccc(C(F)(F)F)nc3)c3cnn(C)c(=O)c3n2)C[C@H](c2cnn(C3CC3)c2)O1 [I-198, 2-[(2S, 6R)-2-(1-cyclopropylpyrazol-4-yl)-6-methyl-morpholin-4-yl]-7-methyl-4-[6-(trifluoromethyl)-3-pyridyl]pyrimido[4,5-d]pyridazin-8-one] | ≤ 50
Cc1nc2nc([C@H]3CCO[C@@H](c4cnn(C5CC5)c4)C3)cc(-c3ccc(F)cc3F)c2c(=O)n1C (single isomer, unassigned) [I-40] | ≤ 50
Cn1ncc2c(-c3ccc(F)cc3F)nc(C3CCO[C@@H](c4cn(C5CC5)[n+](C)c4)C3)nc2c1=O (stereo partly drawn) [I-157, 2-[(2R)-2-(1-cyclopropyl-2-methyl-pyrazol-2-ium-4-yl)tetrahydropyran-4-yl]-4-(2,4-difluorophenyl)-7-methyl-pyrimido[4,5-d]pyridazin-8-one] | 500 to 3000
Cc1nc2c(-c3ccc(F)cc3F)nc([C@H]3CCO[C@@H](c4cnn(C5CC5)c4)C3)nc2c(=O)n1C [I-105, 6-((2R,4S)-2-(1-cyclopropyl-1H-pyrazol-4-yl)tetrahydro-2H-pyran-4-yl)-8-(2,4-difluorophenyl)-2,3-dimethylpyrimido[5,4-d]pyrimidin-4 (3H)-one] | 50 to 500
Cc1nc2c(-c3ccc(C(F)(F)F)cc3F)nc([C@H]3CCO[C@@H](c4cnn(C5CC5)c4)C3)nc2c(=O)n1C [I-134, 6-[(2R,4S)-2-(1-cyclopropylpyrazol-4-yl)tetrahydropyran-4-yl]-8-[2-fluoro-4-(trifluoromethyl)phenyl]-2,3-dimethyl-pyrimido[5,4-d]pyrimidin-4-one] | ≤ 50
Cc1nc2c(-c3ccc(F)cc3F)nc(N3C[C@@H](C)O[C@@H](c4cnn(C5CC5)c4)C3)nc2c(=O)n1C [I-90, 6-((2S,6R)-2-(1-cyclopropyl-1H-pyrazol-4-yl)-6-methylmorpholino)-8-(2,4-difluorophenyl)-2,3-dimethylpyrimido[5,4-d]pyrimidin-4 (3H)-one] | ≤ 50
C[C@@H]1CN(c2nc(-c3ccc(F)cc3F)c3cnn(C)c(=O)c3n2)C[C@H](c2cnn(C3CC3)c2)O1 [I-141, 2-[(2S, 6R)-2-(1-cyclopropylpyrazol-4-yl)-6-methyl-morpholin-4-yl]-4-(2,4-difluorophenyl)-7-methyl-pyrimido[4,5-d]pyridazin-8-one] | ≤ 50
Cn1ncc2c(-c3ccc(Cl)cc3F)nc([C@H]3CCO[C@@H](c4cnn(C5CC5)c4)C3)cc2c1=O [I-48, 5-(4-chloro-2-fluoro-phenyl)-7-[(2R,4S)-2-(1-cyclopropylpyrazol-4-yl)tetrahydropyran-4-yl]-2-methyl-pyrido[3,4-d]pyridazin-1-one] | ≤ 50
Cc1cc([C@H]2CC(c3nc(-c4ccc(Cl)cc4F)c4nc(C)n(C)c(=O)c4n3)CCO2)ccn1 (stereo partly drawn) [I-188, 8-(4-chloro-2-fluoro-phenyl)-2,3-dimethyl-6-[(2R)-2-(2-methyl-4-pyridyl)tetrahydropyran-4-yl]pyrimido[5,4-d]pyrimidin-4-one] | ≤ 50
Cc1cc([C@H]2CN(c3nc(-c4ccc(F)cc4F)c4nc(C)n(C)c(=O)c4n3)C[C@@H](C)O2)ccn1 [I-213, 8-(2,4-difluorophenyl)-2,3-dimethyl-6-[(2R, 6S)-2-methyl-6-(2-methyl-4-pyridyl)morpholin-4-yl]pyrimido[5,4-d]pyrimidin-4-one] | ≤ 50
Cc1nc2c(-c3ccc(F)cc3F)cc(N3C[C@@H](C)O[C@@H](c4cnn(C5CC5)c4)C3)nc2c(=O)n1C [I-110, 6-((2S,6R)-2-(1-cyclopropyl-1H-pyrazol-4-yl)-6-methylmorpholino)-8-(2,4-difluorophenyl)-2,3-dimethylpyrido[3,2-d]pyrimidin-4 (3H)-one] | ≤ 50
Cc1cc2c(-c3ccc(C(F)(F)F)cc3F)nc(N3C[C@@H](C)O[C@@H](c4cnn(C5CC5)c4)C3)cc2c(=O)n1C [I-79, 7-((2S,6R)-2-(1-cyclopropyl-1H-pyrazol-4-yl)-6-methylmorpholino)-5-(2-fluoro-4-(trifluoromethyl)phenyl)-2,3-dimethyl-2,6-naphthyridin-1 (2H)-one] | ≤ 50
O=c1c2nc(C3CCOC(c4cnn(C5CC5)c4)C3)nc(-c3ccc(C(F)(F)F)cc3F)c2cnn1C1CC1 (centres unmarked) [I-115] | 500 to 3000
Cc1nc2nc([C@@H]3CCO[C@H](c4cnn(C5CC5)c4)C3)cc(-c3ccc(F)cc3F)c2c(=O)n1C (single isomer, unassigned) [I-42] | 500 to 3000
Cn1ncc2c(-c3ccc(Cl)cc3F)nc(N3CCOC(c4cnn(C5CC5)c4)C3)cc2c1=O (centres unmarked) [I-45, 5-(4-chloro-2-fluorophenyl)-7-(2-(1-cyclopropyl-1H-pyrazol-4-yl)morpholino)-2-methylpyrido[3,4-d]pyridazin-1 (2H)-one] | 50 to 500
C[C@@H]1CN(c2nc(-c3ccc(F)cc3F)c3ncn(C)c(=O)c3n2)C[C@H](c2cnn(C3CC3)c2)O1 [I-163, 6-((2S,6R)-2-(1-cyclopropyl-1H-pyrazol-4-yl)-6-methylmorpholino)-8-(2,4-difluorophenyl)-3-methylpyrimido[5,4-d]pyrimidin-4 (3H)-one] | ≤ 50
COCn1cc([C@H]2CN(c3nc(-c4ccc(Cl)cc4F)c4cnn(C)c(=O)c4n3)C[C@@H](C)O2)cn1 [I-178] | ≤ 50
Cc1cc2c(-c3ccc(C(F)(F)F)cc3F)nc([C@H]3CCO[C@@H](c4cnn(C5CC5)c4)C3)cc2c(=O)n1C [I-95, 7-((2R,4S)-2-(1-cyclopropyl-1H-pyrazol-4-yl)tetrahydro-2H-pyran-4-yl)-5-(2-fluoro-4-(trifluoromethyl)phenyl)-2,3-dimethyl-2,6-naphthyridin-1 (2H)-one] | ≤ 50
Cc1nc2c(-c3ccc(F)cc3F)cc([C@H]3CCO[C@@H](c4cnn(C5CC5)c4)C3)nc2c(=O)n1C [I-120, 6-((2R,4S)-2-(1-cyclopropyl-1H-pyrazol-4-yl)tetrahydro-2H-pyran-4-yl)-8-(2,4-difluorophenyl)-2,3-dimethylpyrido[3,2-d]pyrimidin-4 (3H)-one] | 50 to 500
CC1Nc2c(nc([C@H]3CCO[C@@H](c4cnn(C5CC5)c4)C3)nc2-c2ccc(F)cc2F)C(=O)N1C (some centres unmarked) [I-173] | 500 to 3000
Cc1nc2c(-c3ccc(C(F)(F)F)cc3F)nc([C@@H]3CCO[C@@H](c4cnn(C5CC5)c4)C3)nc2c(=O)n1C [I-132, 6-[(2R,4R)-2-(1-cyclopropylpyrazol-4-yl)tetrahydropyran-4-yl]-8-[2-fluoro-4-(trifluoromethyl)phenyl]-2,3-dimethyl-pyrimido[5,4-d]pyrimidin-4-one] | 50 to 500
Cn1ncc2c(-c3ccc(Cl)cc3F)nc(N3C[C@@H](c4cnn(C5CC5)c4)O[C@@H](C4CC4)C3)nc2c1=O (single isomer, unassigned) [I-184] | ≤ 50

Same assay, conditions: Table D; HEK293 cells expressing human TREM2 and DAP12; pSyk AlphaLisa; 45 minutes at room temperature

Structure (SMILES) | EC50 [nM]
Cc1nc2cc(N3CCOC(c4cc[nH]c(=O)c4)C3)nc(-c3ccc(F)cc3F)c2c(=O)n1C (centres unmarked) [compound 1, 5-(2,4-difluorophenyl)-2,3-dimethyl-7-(2-(2-oxo-1,2-dihydropyridin-4-yl)morpholino)pyrido[4,3-d]pyrimidin-4(3H)-one] | 50 to 500
Cc1nc2nc(-c3ccc(F)cc3F)cc(C3CCOC(c4cnn(C5CC5)c4)C3)c2c(=O)n1C (centres unmarked) [compound 5, 5-(2-(1-cyclopropyl-1H-pyrazol-4-yl)tetrahydro-2H-pyran-4-yl)-7-(2,4-difluorophenyl)-2,3-dimethylpyrido[2,3-d]pyrimidin-4(3H)-one] | 500 to 3000
Cc1nc2cc(N3CCO[C@@H](c4cc[nH]c(=O)c4)C3)nc(-c3ccc(F)cc3F)c2c(=O)n1C [compound 2, (S)-5-(2,4-difluorophenyl)-2,3-dimethyl-7-(2-(2-oxo-1,2-dihydropyridin-4-yl)morpholino)pyrido[4,3-d]pyrimidin-4(3H)-one] | 50 to 500
Cc1nc2cc(N3CCO[C@H](c4cc[nH]c(=O)c4)C3)nc(-c3ccc(F)cc3F)c2c(=O)n1C [compound 3, (R)-5-(2,4-difluorophenyl)-2,3-dimethyl-7-(2-(2-oxo-1,2-dihydropyridin-4-yl)morpholino)pyrido[4,3-d]pyrimidin-4(3H)-one] | 3000 to 100000
Cc1nc2cc(N3CCOC(c4cc[nH]c(=O)c4)C3)nc(C34CC(C(F)(F)F)(C3)C4)c2c(=O)n1C (centres unmarked) [compound 4, 2,3-dimethyl-7-(2-(2-oxo-1,2-dihydropyridin-4-yl)morpholino)-5-(3-(trifluoromethyl)bicyclo[1.1.1]pentan-1-yl)pyrido[4,3-d]pyrimidin-4(3H)-one] | ≤ 50
